Where two headings read alike, the source gives them in different places.
With `COC(=O)[C@@H]1C[C@@H]2CN1C(=O)[C@H](C(C)(C)C)NC(=O)OCCCCCC=Cc1ccccc1C#CCO2.[C-]#[O+].[C-]#[O+].[C-]#[O+].[C-]#[O+].[C-]#[O+].[C-]#[O+].[Co].[Co]` the ring closure, yield of all isomers (from C=CCCCCCOC(=O)N[C@H](C(=O)N1C[C@H](OCC#Cc2ccccc2C=C)C[C@H]1C(=O)OC)C(C)(C)C.[C-]#[O+].[C-]#[O+].[C-]#[O+].[C-]#[O+].[C-]#[O+].[C-]#[O+].[Co].[Co], rcm bond) was 34.5%.

`COC(=O)[C@@H]1C[C@@H]2CN1C(=O)[C@H](C(C)(C)C)NC(=O)OCCCCC=CCC1CCCCC1OC(=O)N2` (stereo partly shown) showed a ring closure, yield of all isomers (from C=CCCCCOC(=O)N[C@H](C(=O)N1C[C@H](NC(=O)OC2CCCCC2CC=C)C[C@H]1C(=O)OC)C(C)(C)C, rcm bond, Zhan 1a catalyst, DCE, 5.0 mM, 83.0 °C, 1.5 h) of 49.8%.

Work on `CCCC[C@@H]1NC(=O)OCCCCC=CCc2ccccc2O[C@@H]2C[C@@H](C(=O)OC)N(C2)C1=O` yielded a ring closure, yield of all isomers (from C=CCCCCOC(=O)N[C@@H](CCCC)C(=O)N1C[C@H](Oc2ccccc2CC=C)C[C@H]1C(=O)OC, rcm bond, Zhan 1a catalyst, DCE, 4.9 mM, 83.0 °C, 2.0 h) of 100%.

`C=C1CCCCCOC(=O)N[C@@H](C2CCCCC2)C(=O)N2C[C@@H](C[C@H]2C(=O)OC)Oc2ccc3ccccc3c21` showed a ring closure, yield of all isomers (from C=CCCCCCOC(=O)N[C@H](C(=O)N1C[C@H](Oc2ccc3ccccc3c2Br)C[C@H]1C(=O)OC)C1CCCCC1, cc_pd bond, PdCl2(dppf)-DCM, EtOH, 50.3 mM, 78.0 °C, 48.0 h) of 52.7%.

With `COC(=O)[C@@H]1C[C@@H]2CN1C(=O)[C@H](C(C)(C)C)NC(=O)O[C@@H]1CCC[C@H]1CCCC=Cc1nc3ccc(OC)cc3cc1O2` the ring closure, yield of all isomers (from C=CCCC[C@@H]1CCC[C@H]1OC(=O)N[C@H](C(=O)N1C[C@H](Oc2cc3cc(OC)ccc3nc2C=C)C[C@H]1C(=O)OC)C(C)(C)C, rcm bond, Zhan catalyst, DCE, 16.0 mM, 90.0 °C, 2.0 h) was 84%.

`COC(=O)[C@@H]1C[C@@H]2CN1C(=O)[C@H](C(C)(C)C)NC(=O)OCCCCC/C=C/c1cccnc1O2` showed a ring closure, yield of all isomers (from C=CCCCCCOC(=O)N[C@H](C(=O)N1C[C@H](Oc2ncccc2C=C)C[C@H]1C(=O)OC)C(C)(C)C, rcm bond, Zhan 1b catalyst, DCM, 5.03 mM, 16.0 h) of 92.9%.

With `COC(=O)[C@@H]1C[C@@H]2CN1C(=O)[C@H](C1CCCC1)NC(=O)O[C@@H]1CCC[C@H]1CCCC=Cc1nc3ccccc3cc1O2` (mixture of isomers) the ring closure, yield of all isomers (from C=CCCC[C@@H]1CCC[C@H]1OC(=O)N[C@H](C(=O)N1C[C@H](Oc2cc3ccccc3nc2C=C)C[C@H]1C(=O)OC)C1CCCC1, rcm bond, Zhan catalyst, DCE, 10.0 mM, 90.0 °C, 1.5 h) was 74%.

From patent publication US9738661
